In patent US20240408071A1, “NOVEL COMBINATION OF SEROTONIN RECEPTOR (5-HTR2B) ANTAGONIST AND AN IMMUNOMODULATOR AND CHEMOTHERAPEUTIC DRUGS FOR INHIBITION OF CANCER” (NATIONAL CENTRE FOR CELL SCIENCE, priority 2021, published 2024):

How the values were obtained:
[1] = system: MC38 tumor; assay: Adoptive transfer of lymph node cells into NRG mice bearing MC38 and B16F10 tumors: MC38 flank; format: in vivo; details: donor mice treated 10 days; tumor-draining lymph node cells; MC38 flank (FIG. 11B)
Protocol: FIG. 11 depicts the effect of 5-HTR antagonists on the antigen-specific CTL response MC38 tumor model in mice: (A) Representative experimental plan of the adoptive transfer experiment where NRG mice. In brief, NRG mice were inoculated with MC38 on one flank and B16F10 cells on the other. These mice received total lymph node cells from naïve C57BL/6J mice or MC38 tumor-bearing control or RS-127445 treated mice. (B) Tumor volume data from the above-described experiment was measured and plotted (C) Immunocytochemistry data showing expression of H2-Kb-[…]^+ (red) on MC38 cells transfected with pCL-neo-OVA plasmid on the right side and MC38 cells without transfection. DAPI is used as a counterstain. (D-E) C7BL/6J mice were inoculated with an MC38-ova cell line and treated with RS-127445 or left untreated. After 10 days of such treatment, Total lymph node cells were harvested tagged with CFSE, and cultured in the presence of ovalbumin protein (50 μg/ml) for 5 days. After 5 days cells were checked for CFSE expression by flow cytometry to check proliferation. Here is the data (D) showing the CFSE in CD8^+ cells. The statistical data of the total percentage of CFSE^− CD8 T cells corresponding with the percentage of proliferated CD8 T cells were plotted. […]

[2] = system: MC38 tumor; assay: CD31+ micro-blood vessel count in MC38 tumor sections (IHC, angiogenesis); format: in vivo, mice; details: MC38 tumor harvested after 20 days of tumor inoculation
Protocol: FIG. 6 depicts that 5-HTR2B signalling in colon cancer affects cell proliferation and viability: Colon cancer MC38 cells were treated with serotonin (100 μM), 5-HTR2B agonist (BW-723C86; 50 μM), or 5-HTR2B antagonist (SB-215505; 50 μM) for 48 hours, and cell cycle analysis was performed by propidium iodide staining using flow cytometry. MC38 cells were also treated with a graded dose of 5-HTR2B agonist (BW-723C86) or serotonin. MTT assay was performed to measure cell viability. (A) After treatment with 5-HTR2B agonist BW-723C86, serotonin, or 5-HTR2B antagonist SB-215505, the relative cell cycle analysis is shown. (B) Relative cell viability data of MC38 cells following treatment of graded doses of 5-HTR2B agonist BW-723C86 or serotonin are shown. The data shown are representative of one of the three independent experiments. (C) MC38 tumor sections from the control tumor and 5-HTR2B antagonist treated tumor were stained for CD31 and the number of CD31^+ micro-blood vessels/mm^2 of tissue sections was counted and plotted to observe angiogenesis. […]
For fluorescence-based immunohistochemical staining, tissues were embedded in OCT tissue freezing media (Fisher Scientific) and stored at −80° C. […] The images were captured using Olympus FV3000 confocal microscope (Waltham, Massachusetts), and the images were analysed using Cellsens software (Olympus; Waltham, Massachusetts). […]

CC(C)c1cc(-c2ccc(F)c3ccccc23)nc(N)n1 [RS-127445]
MC38 tumor growth after transfer of antagonist primed total immune cells [1]: able to control MC38 tumor growth | number of CD31+ micro-blood vessels/mm^2 in the tumor area [2]: reduced the number of micro-blood vessels/mm^2
